Our source for the IC50 and Activity values is ChEMBL document CHEMBL6071148, “Synthesis and biological evaluation of novel 3,6- amide and thioamide substituted- 2,3,4,9-tetrahydro-1H-carbazoles for anti-cancer activity” (Eur J Med Chem, 2024).

The subject of series [1] is HCT-116. As to the kind of experiment: Cytotoxicity against human HCT-116 cells assessed as inhibition of cell proliferation incubated for 72 hrs by MTT assay. Format: functional, cell-based. Conditions: HCT-116, 72 h. For orientation: Formazan colour is commonly taken as a measure of viable cells.
Series [2] concerns A549. The series can be described thus: Cytotoxicity against human A549 cells assessed as inhibition of cell proliferation incubated for 72 hrs by MTT assay. Format: functional, cell-based. The following applies: A549, 72 h.
A short description of series [3]: Cytotoxicity against human MRC5 cells assessed as inhibition of cell proliferation incubated for 72 hrs by MTT assay. Format: toxicity, cell-based.
The subject of series [4] is MCF7. The series can be described thus: Cytotoxicity against human MCF7 cells assessed as inhibition of cell proliferation incubated for 72 hrs by MTT assay. In kind it is functional, cell-based. The following applies: MCF7, 72 h.
For series [5], the system named is HL-60. The series can be described thus: Cytotoxicity against human HL-60 cells. Format: functional, cell-based.
Series [6] in a line: Cytotoxicity against human SGC cells assessed as reduction in cell viability incubated for 48 hrs by MTT assay. In kind it is functional, cell-based.
A short description of series [7]: Cytotoxicity against human KB-R cells assessed as reduction in cell viability incubated for 48 hrs by MTT assay. Format: functional, cell-based.
The test system of series [8] is K562. As to the kind of experiment: Cytotoxicity against human K562 cells assessed as reduction in cell viability incubated for 48 hrs by MTT assay. Format: functional, cell-based. Conditions: K562, 48 h.
The test system of series [9] is A549. The series can be described thus: Cytotoxicity against human A549 cells assessed as reduction in cell viability incubated for 48 hrs by MTT assay. In kind it is functional, cell-based. The following applies: A549, 48 h.
Series [10] relates to HCT-116. The series can be described thus: Cytotoxicity against human HCT-116 cells assessed as reduction in cell viability incubated for 48 hrs by MTT assay. Format: functional, cell-based. The following applies: HCT-116, 48 h.
The target in series [11] is Acetylcholinesterase (Homo sapiens, UniProt P22303). The series can be described thus: Inhibition of AChE (unknown origin) by Ellman's method. (In general: DTNB colorimetry detects thiols as they appear.)
Chain of Acetylcholinesterase (P22303 whole entry): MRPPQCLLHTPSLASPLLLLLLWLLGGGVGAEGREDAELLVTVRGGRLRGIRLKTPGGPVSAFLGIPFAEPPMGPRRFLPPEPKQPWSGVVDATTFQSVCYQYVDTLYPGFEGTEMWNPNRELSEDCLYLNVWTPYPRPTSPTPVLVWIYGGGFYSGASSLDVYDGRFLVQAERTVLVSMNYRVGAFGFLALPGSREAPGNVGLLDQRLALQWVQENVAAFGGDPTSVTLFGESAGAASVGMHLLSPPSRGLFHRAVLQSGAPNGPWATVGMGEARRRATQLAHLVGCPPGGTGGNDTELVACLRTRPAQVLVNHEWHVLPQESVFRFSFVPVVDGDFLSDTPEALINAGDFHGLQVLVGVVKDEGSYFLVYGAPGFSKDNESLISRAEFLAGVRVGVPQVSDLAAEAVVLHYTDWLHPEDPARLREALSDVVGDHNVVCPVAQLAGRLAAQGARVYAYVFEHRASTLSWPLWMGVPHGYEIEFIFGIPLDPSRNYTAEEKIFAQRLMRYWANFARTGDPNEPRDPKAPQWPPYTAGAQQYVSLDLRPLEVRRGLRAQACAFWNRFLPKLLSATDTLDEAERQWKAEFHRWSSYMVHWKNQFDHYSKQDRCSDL
In series [12] the test system is Human papillomavirus. The series can be described thus: Antiviral activity against Human papillomavirus. Format: functional, organism-based.
Series [13] deals with MCF7. The series can be described thus: Cytotoxicity against human MCF7 cells assessed as reduction in cell viability by SRB assay. Format: functional, cell-based. Background: Sulforhodamine B stains cellular protein and so reports cell mass.
In series [14] the test system is HCT-116. As to the kind of experiment: Cytotoxicity against human HCT-116 cells assessed as reduction in cell viability by SRB assay. Format: functional, cell-based.
The test system of series [15] is HCT-116. The series can be described thus: Induction of DNA damage in human HCT-116 cells assessed as gammaH2AX positive cells at IC50 incubated for 48 hrs by PI staining based flow cytometric analysis (reference value: 6.24 +/- 1.94%). In kind it is functional.
The test system of series [16] is MCF7. The series can be described thus: Induction of cell cycle arrest in human MCF7 cells assessed as accumulation of cells at G2 phase at IC50 incubated for 24 hrs by PI staining based flow cytometric analysis relative to control. In kind it is functional.
Series [17] relates to A549. The series can be described thus: Induction of cell cycle arrest in human A549 cells assessed as accumulation of cells at G2 phase at IC50 incubated for 48 hrs by PI staining based flow cytometric analysis (reference value: 38.15 +/- 1.80%). Format: functional.
Series [18] relates to HCT-116. As to the kind of experiment: Induction of cell cycle arrest in human HCT-116 cells assessed as accumulation of cells at G2 phase at IC50 incubated for 24 hrs by PI staining based flow cytometric analysis relative to control. Format: functional.
The test system of series [19] is MCF7. As to the kind of experiment: Induction of cell cycle arrest in human MCF7 cells assessed as accumulation of cells at G1 phase at IC50 incubated for 24 hrs by PI staining based flow cytometric analysis relative to control. In kind it is functional.
For series [20], the system named is MCF7. As to the kind of experiment: Induction of DNA damage in human MCF7 cells assessed as gammaH2AX positive cells at IC50 incubated for 48 hrs by PI staining based flow cytometric analysis (reference value: 7.58 +/- 1.23%). Format: functional.
The test system of series [21] is MCF7. As to the kind of experiment: Induction of apoptosis in human MCF7 cells assessed as increase in apoptotic cells incubated for 48 hrs by Annexin-V and 7-AAD staining based flow cytometric analysis (reference value: 7.53 +/- 1.16%). Format: functional.
In series [22] the test system is A549. The series can be described thus: Induction of cell cycle arrest in human A549 cells assessed as accumulation of cells at G1 phase at IC50 incubated for 24 hrs by PI staining based flow cytometric analysis (reference value: 37.40 +/- 2.40%). In kind it is functional.
The subject of series [23] is MCF7. As to the kind of experiment: Induction of apoptosis in human MCF7 cells assessed as increase in apoptotic cells incubated for 24 hrs by Annexin-V and 7-AAD staining based flow cytometric analysis (reference value: 5.70 +/- 1.56%). Format: functional.
In series [24] the test system is A549. The series can be described thus: Induction of DNA damage in human A549 cells assessed as gammaH2AX positive cells at IC50 incubated for 48 hrs by PI staining based flow cytometric analysis (reference value: 4.90 +/- 0.50%). Format: functional.
Series [25] concerns A549. The series can be described thus: Induction of cell cycle arrest in human A549 cells assessed as accumulation of cells at G1 phase at IC50 incubated for 48 hrs by PI staining based flow cytometric analysis (reference value: 53.5 +/- 4.01%). In kind it is functional.
In series [26] the test system is HCT-116. As to the kind of experiment: Induction of apoptosis in human HCT-116 cells assessed as increase in apoptotic cells incubated for 48 hrs by Annexin-V and 7-AAD staining based flow cytometric analysis (reference value: 6.82 +/- 1.05%). Format: functional.
Series [27] relates to A549. As to the kind of experiment: Induction of apoptosis in human A549 cells assessed as apoptotic rate at IC50 incubated for 48 hrs by Annexin-V and 7-AAD staining based flow cytometric analysis (reference value: 6.56 +/- 1.17%). In kind it is functional.
Series [28] relates to A549. As to the kind of experiment: Induction of cell cycle arrest in human A549 cells assessed as accumulation of cells at G2 phase at IC50 incubated for 24 hrs by PI staining based flow cytometric analysis (reference value: 23.45 +/- 1.62%). In kind it is functional.
For series [29], the system named is A549. The series can be described thus: Induction of apoptosis in human A549 cells assessed as apoptotic rate at IC50 incubated for 24 hrs by Annexin-V and 7-AAD staining based flow cytometric analysis (reference value: 4.56 +/- 0.81%). In kind it is functional.
Series [30] concerns HCT-116. As to the kind of experiment: Induction of cell cycle arrest in human HCT-116 cells at IC50 incubated for 48 hrs by PI staining based flow cytometric analysis. In kind it is functional.
Series [31] concerns HCT-116. The series can be described thus: Induction of apoptosis in human HCT-116 cells assessed as increase in apoptotic cells incubated for 24 hrs by Annexin-V and 7-AAD staining based flow cytometric analysis (reference value: 8.10 +/- 2.16%). Format: functional.
Series [32] relates to MCF7. As to the kind of experiment: Induction of cell cycle arrest in human MCF7 cells assessed as accumulation of cells at S phase at IC50 incubated for 24 hrs by PI staining based flow cytometric analysis relative to control. Format: functional.

Calls of active or inactive are those of the source. No cut-off for these calls is given here.

On to `CC(=O)Nc1ccc2[nH]c3c(c2c1)CC(NC(=O)c1cc2ccccc2[nH]1)CC3` (stereo not drawn), for which the 50% inhibitory concentration (IC50) in series [1], in series [2] and in series [4] was > 50 µM each time. In series [3], the IC50 at 72 h was > 50 µM.
Consider `CC(=O)Nc1ccc2[nH]c3c(c2c1)CC(NC(=O)OC(C)(C)C)CC3` (stereo not drawn), for which the 50% inhibitory concentration (IC50) in [1], in [2] and in series [4] was > 50 µM in each case. Moreover, the IC50 at 72 h in [3] is > 50 µM.
Consider `CC[C@]12CCCN3C(=O)C(=O)O[C@@]31c1c([nH]c3ccccc13)CC2`, for which the IC50 in [5] is > 100 µM.
On to `CCN(CC)C1CCc2c(n(C)c3ccccc23)C1=O` (stereo not drawn), for which the IC50 in series [6] was determined as 24.4 µM; in [7] it was 118 µM; in [8], 17.3 µM; in [9], 110 µM; in series [10], 2.96 µM.
Regarding `CC(=O)Nc1ccc2[nH]c3c(c2c1)CC(NC(=O)c1ccccc1)CC3` (stereo not drawn), the IC50 in series [1], in series [2] and in series [4] was > 50 µM each time. Moreover, in series [3], the IC50 at 72 h is > 50 µM.
In [11], `O=C1[C@H](O)C[C@]23CCCN1[C@@H]2c1c([nH]c2ccccc12)CC3` came in with an IC50 of 38.5 µM.
Take `CC(=O)NC1CCc2[nH]c3ccc(S(N)(=O)=O)cc3c2C1` (stereo not drawn): the IC50 in [1], in series [2] and in series [4] was > 50 µM throughout. Besides, the IC50 at 72 h in [3] is > 50 µM.
Consider `CC(=O)Nc1ccc2[nH]c3c(c2c1)CC(NC(=O)c1ccc(Br)o1)CC3` (stereo not drawn), for which the IC50 in series [1], in series [2] and in series [4] was > 50 µM throughout. Moreover, the half-inhibitory concentration (IC50) at 72 h in series [3] is > 50 µM.
In the case of `CCc1ccc(C(=O)NC2CCc3[nH]c4ccc(NC(C)=O)cc4c3C2)o1` (stereo not drawn), the IC50 in [1], in series [2] and in series [4] was > 50 µM throughout. Besides, the IC50 at 72 h in series [3] was > 50 µM.
With `O=C(N[C@@H]1CCCc2c1[nH]c1ccc(Cl)cc21)c1ccccn1`, in series [12], 0.005 µM corresponded to half-maximal inhibition (IC50).
`CC(=O)Nc1ccc2[nH]c3c(c2c1)CC(NC(C)=O)CC3` (stereo not drawn): the half-maximal inhibitory concentration (IC50) in [1], in series [2] and in series [4] was > 50 µM each time. Moreover, the IC50 at 72 h in [3] was > 50 µM.
On to `O=C(CSC(=S)N1CCN(c2ccc(Cl)cc2)CC1)n1c2c(c3ccccc31)CCCC2`, for which the IC50 in series [13] worked out at 7.24 µM; in series [14], 8.23 µM.
As for `CC(=O)Nc1ccc2[nH]c3c(c2c1)CC(NC(=O)c1ccc(C)s1)CC3` (stereo not drawn), the IC50 in [1], in series [2] and in [4] was > 50 µM in each case. Also, the IC50 at 72 h in series [3] is > 50 µM.
Take `O=C1c2c(O)ccc(O)c2C(=O)c2c(NCCNCCO)ccc(NCCNCCO)c21` [MITOXANTRONE]: the IC50 in series [1] is 0.127 µM; in series [2], 0.164 µM; in series [4] it was 0.018 µM. The Activity is given as 32.47% in series [15]; 33.2% in [16]; 29.8% in series [17]; 26.3% in [18]; 44.4% in series [19]; 23.01% in [20]. Further, the Activity worked out at 67.63% in series [21]; 34.62% in [22]; 11.55% in series [23]; 14.22% in [24]; 48.61% in [25]; 31.1% in series [26]. The Activity in [27] is 32.27%; in [28], 20.2%; in series [29] it was 30.26%; in series [31] it was 32.01%; in series [32], 17.9%. Further, the IC50 at 72 h in series [3] is 0.517 µM. Besides, the outcome in series [30] was Active.
`CC(=O)Nc1ccc2[nH]c3c(c2c1)CC(NC(=O)c1ccc(C)o1)CC3` (stereo not drawn): the IC50 in [1], in [2] and in series [4] was > 50 µM in each case. Moreover, the IC50 at 72 h in [3] is > 50 µM.

In general, IC50 refers to the point on the concentration scale where inhibition reaches its midpoint.
